Reference: patent US20030104507A1, “Method for detection of ATP” (priority 2001, published 2003)

Assays:
[1] = target: native firefly luciferase (Photinus pyralis, UniProt P08659); settings: cited from earlier work
[2] = system: ATPase activity endogenous to L929 cell lysate; assay: Detergent inhibition of ATPase endogenous to L929 cell lysate (ATP remaining by luciferase luminescence, 22° C.); type: biochemical; set-up: key to Relative ATPase Activity, slope det/slope lysate: slope with detergent / slope without; ≥1.0 = 100% activity, 0.5 = 50%
How it was run: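 L929 lysate (1.5×10^5 cells/ml, four freeze–thaw cycles) held with detergent at final 1.0, 0.5, 0.1 or 0.05% at 22° C; remaining ATP read over time with luciferase-luciferin reagent (100 μM luciferin, 10 mM MgSO4, pH 7.5). Relative ATPase activity = slope of log % ATP remaining vs time with detergent ÷ slope for lysate-only control.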

[3] = 0.50 percent detergent, second 0.50 line of DTAB (assayed on two days)
[4] = Example 2, 0.02% detergent, 5 min
[5] = Example 2, 0.02% detergent, 75 min
[6] = Example 2, 0.02% detergent, 169 min
[7] = Example 2, 0.02% detergent, 222 min
[8] = Example 2, 0.02% detergent, 260 min
[9] = Example 2, 0.5% detergent, 5 min
[10] = Example 2, 0.5% detergent, 75 min
[11] = Example 2, 0.5% detergent, 169 min
[12] = Example 2, 0.5% detergent, 222 min
[13] = Example 2, 0.5% detergent, 260 min

Sequence of native firefly luciferase (P08659 whole entry): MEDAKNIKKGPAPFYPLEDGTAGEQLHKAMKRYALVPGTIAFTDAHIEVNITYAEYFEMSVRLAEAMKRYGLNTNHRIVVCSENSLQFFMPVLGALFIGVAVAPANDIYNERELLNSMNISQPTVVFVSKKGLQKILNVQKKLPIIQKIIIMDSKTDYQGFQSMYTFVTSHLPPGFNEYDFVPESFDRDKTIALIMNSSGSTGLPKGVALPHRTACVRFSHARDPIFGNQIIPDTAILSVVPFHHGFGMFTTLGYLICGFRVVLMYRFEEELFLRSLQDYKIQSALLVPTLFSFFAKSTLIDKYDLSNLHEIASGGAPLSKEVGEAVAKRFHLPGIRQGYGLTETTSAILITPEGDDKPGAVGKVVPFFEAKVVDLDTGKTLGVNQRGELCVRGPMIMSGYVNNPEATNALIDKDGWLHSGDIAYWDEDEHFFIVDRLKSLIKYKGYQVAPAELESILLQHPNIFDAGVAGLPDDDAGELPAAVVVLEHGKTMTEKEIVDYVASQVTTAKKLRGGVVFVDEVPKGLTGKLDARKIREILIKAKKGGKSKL

Structure (SMILES): CCCCCCCCCCCC[N+](C)(C)C.[Br-] [DTAB, dodecyltrimethylammonium bromide]
- effect on native firefly luciferase [1]: inactivated
- Relative ATPase Activity, slope det/slope lysate ([2]; 0.02 percent detergent): 0.884
- Slope (log percent ATP remaining vs time in minutes) ([2]; 0.02 percent detergent): −0.0056
- Average Relative Light Unit Values ([2]; 0.05% detergent, 5 min): 6487.93 rlu
- Percent ATP Remaining ([2]; 0.05% detergent, 5 min): 100%
- Average Relative Light Unit Values ([2]; 0.05% detergent, 75 min): 3138.81 rlu
- Percent ATP Remaining ([2]; 0.05% detergent, 75 min): 48.4%
- Average Relative Light Unit Values ([2]; 0.05% detergent, 169 min): 1496.01 rlu
- Percent ATP Remaining ([2]; 0.05% detergent, 169 min): 23.1%
- Average Relative Light Unit Values ([2]; 0.05% detergent, 222 min): 943.40 rlu
- Percent ATP Remaining ([2]; 0.05% detergent, 222 min): 14.5%
- Average Relative Light Unit Values ([2]; 0.05% detergent, 260 min): 638.30 rlu
- Percent ATP Remaining ([2]; 0.05% detergent, 260 min): 9.8%
- Relative ATPase Activity, slope det/slope lysate ([2]; 0.05 percent detergent): 0.690
- Slope (log percent ATP remaining vs time in minutes) ([2]; 0.05 percent detergent): −0.0039
- Average Relative Light Unit Values ([2]; 0.1% detergent, 5 min): 6991.01 rlu
- Percent ATP Remaining ([2]; 0.1% detergent, 5 min): 100%
- Average Relative Light Unit Values ([2]; 0.1% detergent, 75 min): 4753.46 rlu
- Percent ATP Remaining ([2]; 0.1% detergent, 75 min): 68.0%
- Average Relative Light Unit Values ([2]; 0.1% detergent, 169 min): 2737.36 rlu
- Percent ATP Remaining ([2]; 0.1% detergent, 169 min): 39.2%
- Average Relative Light Unit Values ([2]; 0.1% detergent, 222 min): 1950.95 rlu
- Percent ATP Remaining ([2]; 0.1% detergent, 222 min): 27.9%
- Average Relative Light Unit Values ([2]; 0.1% detergent, 260 min): 1408.18 rlu
- Percent ATP Remaining ([2]; 0.1% detergent, 260 min): 20.1%
- Relative ATPase Activity, slope det/slope lysate ([2]; 0.10 percent detergent): 0.480
- Slope (log percent ATP remaining vs time in minutes) ([2]; 0.10 percent detergent): −0.0027
- Percent ATP Remaining ([2]; 0.5% (1), 5 min): 100%
- Percent ATP Remaining ([2]; 0.5% (1), 75 min): 90.6%
- Percent ATP Remaining ([2]; 0.5% (1), 169 min): 88.0%
- Percent ATP Remaining ([2]; 0.5% (1), 222 min): 87.3%
- Percent ATP Remaining ([2]; 0.5% (1), 260 min): 80.2%
- Percent ATP Remaining ([2]; 0.5% (2), 5 min): 100%
- Percent ATP Remaining ([2]; 0.5% (2), 75 min): 95.8%
- Percent ATP Remaining ([2]; 0.5% (2), 169 min): 90.3%
- Percent ATP Remaining ([2]; 0.5% (2), 222 min): 88.0%
- Percent ATP Remaining ([2]; 0.5% (2), 260 min): 85.0%
- Average Relative Light Unit Values ([2]; 0.5% (day 1), 5 min): 5630.61 rlu
- Average Relative Light Unit Values ([2]; 0.5% (day 1), 75 min): 5100.09 rlu
- Average Relative Light Unit Values ([2]; 0.5% (day 1), 169 min): 4957.48 rlu
- Average Relative Light Unit Values ([2]; 0.5% (day 1), 222 min): 4916.46 rlu
- Average Relative Light Unit Values ([2]; 0.5% (day 1), 260 min): 4515.20 rlu
- Average Relative Light Unit Values ([2]; 0.5% (day 2), 5 min): 6617.08 rlu
- Average Relative Light Unit Values ([2]; 0.5% (day 2), 75 min): 6341.09 rlu
- Average Relative Light Unit Values ([2]; 0.5% (day 2), 169 min): 5977.33 rlu
- Average Relative Light Unit Values ([2]; 0.5% (day 2), 222 min): 5824.18 rlu
- Average Relative Light Unit Values ([2]; 0.5% (day 2), 260 min): 5622.12 rlu
- Relative ATPase Activity, slope det/slope lysate ([2]; 0.50 percent detergent): 0.055
- Slope (log percent ATP remaining vs time in minutes) ([2]; 0.50 percent detergent): −0.0003
- Relative ATPase Activity, slope det/slope lysate [2, 3]: 0.048
- Slope (log percent ATP remaining vs time in minutes) [2, 3]: −0.0003
- Average Relative Light Unit Values ([2]; 1.0% detergent, 5 min): 800.61 rlu
- Percent ATP Remaining ([2]; 1.0% detergent, 5 min): 100%
- Average Relative Light Unit Values ([2]; 1.0% detergent, 75 min): 693.13 rlu
- Percent ATP Remaining ([2]; 1.0% detergent, 75 min): 86.6%
- Average Relative Light Unit Values ([2]; 1.0% detergent, 169 min): 649.41 rlu
- Percent ATP Remaining ([2]; 1.0% detergent, 169 min): 81.1%
- Average Relative Light Unit Values ([2]; 1.0% detergent, 222 min): 671.03 rlu
- Percent ATP Remaining ([2]; 1.0% detergent, 222 min): 83.8%
- Average Relative Light Unit Values ([2]; 1.0% detergent, 260 min): 645.40 rlu
- Percent ATP Remaining ([2]; 1.0% detergent, 260 min): 80.6%
- Relative ATPase Activity, slope det/slope lysate ([2]; 1.00 percent detergent): 0.057
- Slope (log percent ATP remaining vs time in minutes) ([2]; 1.00 percent detergent): −0.0003
- Average Relative Light Unit Values [2, 4]: 5870.43 rlu
- Percent ATP Remaining [2, 4]: 100.00%
- Average Relative Light Unit Values [2, 5]: 1997.09 rlu
- Percent ATP Remaining [2, 5]: 34.02%
- Average Relative Light Unit Values [2, 6]: 435.05 rlu
- Percent ATP Remaining [2, 6]: 7.41%
- Average Relative Light Unit Values [2, 7]: 329.83 rlu
- Percent ATP Remaining [2, 7]: 5.62%
- Average Relative Light Unit Values [2, 8]: 227.72 rlu
- Percent ATP Remaining [2, 8]: 3.88%
- Average Relative Light Unit Values [2, 9]: 5189.8 rlu
- Percent ATP Remaining [2, 9]: 100.00%
- Average Relative Light Unit Values [2, 10]: 4564.65 rlu
- Percent ATP Remaining [2, 10]: 87.95%
- Average Relative Light Unit Values [2, 11]: 4111.89 rlu
- Percent ATP Remaining [2, 11]: 79.23%
- Average Relative Light Unit Values [2, 12]: 4230.51 rlu
- Percent ATP Remaining [2, 12]: 81.52%
- Average Relative Light Unit Values [2, 13]: 4267.32 rlu
- Percent ATP Remaining [2, 13]: 82.23%
- concentrations which resulted in a 25% or greater decrease in the relative ATPase activity ([2]; compared to reactions in the absence of detergent): ≥ 0.05%
